# “And” between values parts separate entries of the source, which are not always exact repeats. Equal entries are not always repeated.
# Assays:
# [1] = tested on: human hepatocyte (HepG2); test: Incubation of 3APS in human hepatocyte (HepG2) culture media; format: in vitro ADME; settings: after incubation of 3APS in HepG2 culture media
# Procedure: (§1) In another in vitro model employing organotypic hippocampal slice culture, the conversion of 3APS to 2-carboxyethanesulfonic acid was time-dependent. More than 60% of 3APS was converted to 2-carboxyethanesulfonic acid after 3-day incubation in the culture media. 2-carboxyethanesulfonic acid was also detected after incubation of 3APS in human hepatocyte (HepG2) culture media.
# [2] = Metabolic profiling of 14C-3APS in rats; format: in vivo, male Sprague-Dawley rats
# Procedure: (§2) Three single dose studies were conducted in mice, rats and dogs to determine the metabolic profile of ^14C-3APS in plasma, urine and feces. In the first study, twenty-seven male CD-1 mice received a single dose of 100 mg/kg (20 μCi/animal) of ^14C-3APS by oral gavage. Blood samples (3 animals/time point) were collected for 12 hr following drug administration while urine and feces (3 animals/time point) samples were collected for 96 hr. In the second study, eight male Sprague-Dawley rats received a single dose of 100 mg/kg (50 μCi/animal) of ^14C-3APS by oral gavage while in the third study, three male Beagle dogs received a single dose of 100 mg/kg (30 μCi/kg) of ^14C-3APS by oral gavage. For the rat and dog studies, blood samples were collected for 24 hr following drug administration while urine and feces samples were collected for 72 hr. All samples were analyzed for total radioactivity using appropriate sample preparation procedures and scintillation counting. Plasma and urine samples were also analyzed for 3APS and 3APS metabolites (2-carboxyethanesulfonic acid, 3-hydroxy-1-propanesulfonic acid and 3-acetylamino-1-propanesulfonic acid) concentrations using qualified HPLC and MS/MS methods.
# [3] = Previous metabolic stability studies of 3APS; format: in vitro ADME
# From the text: Those studies include: 3APS metabolic stability in pooled human hepatocytes, human, rat and dog liver microsomes, human intestinal microflora, pooled human liver cytosol, and human arylamine N-acetyltransferase (See Examples 4 and 5).
# [4] = Single oral and IV administration of 14C-3APS to rats; format: in vivo, male Sprague-Dawley rats; settings: for AUC0-∞ / AUC(0-inf): 100 mg/kg 14C-3APS, rats, 100 mg/kg; for AUC(0-inf): male, Sprague-Dawley, rat, plasma
# Procedure: The purpose of this study was to investigate the absorption, metabolism and excretion profiles of ^14C-3APS following a single intravenous bolus and oral administration to rats. Thirty-six male Sprague-Dawley rats received a single 100 mg/kg (˜50 μCi/animal) dose of ^14C-3APS by an IV bolus injection (water or isotonic saline solution) and an additional 36 male rats received the same dose level by oral gavage (in water). Blood, urine, feces, brain and CSF samples were collected for up to 72 hr following dose administration. Plasma, urine, brain and CSF concentrations of 3APS and 2-carboxyethanesulfonic acid (3APS major metabolite) were measured using LC and MS/MS detection method. Plasma, urine, feces, brain and CSF samples were analyzed for total radioactivity using appropriate sample preparation procedures and scintillation counting.
# [5] = Absorption, excretion and plasma kinetics of 14C-3APS in humans; format: in vivo, human
# From the text: Following the identification of 3APS metabolites, plasma and urine samples from this human AME study were reanalyzed for 3APS and 3APS metabolite (2-carboxyethanesulfonic acid, 3-hydroxy-1-propanesulfonic acid and 3-acetylamino-1-propanesulfonic acid) concentrations using qualified HPLC and MS/MS methods to determine the metabolic profile of ^14C-3APS in human.
# [6] = PK brain and plasma levels of oral Compound A2 and 3-APS in mice; format: in vivo; settings: oral 0.18 mmol/kg
# Procedure: Compounds A2 and 3-aminopropanesulfonic acid were tested for pharmacokinetic parameters in mice. Parmacokinetic parameters (Cmax, Tmax, T½, AUC) are evaluated for 3APS after administration of a molar equivalent of each compound. Blood samples (approximately 1 ml) and brain samples are collected from each of 3 animals at time points 5, 15, 30 minutes, 1, 2, 4, 6, 12, and 24 hours. […] A 2-fold increase in plasma concentration (Cmax) of 3-APS was observed when orally administering Compound A2 compared to 3-APS.
# [7] = Metabolic profiling of 14C-3APS in mice; format: in vivo, male CD-1 mice; settings: Mouse plasma
# Procedure: as §2
# [8] = Bioavailability of exemplary compounds in mice (3APS quantified in plasma); format: in vivo; settings: mouse, oral, 3APS in plasma
# Procedure: Selected exemplary compounds were tested for bioavailability in mice. Bioavailability estimates are performed for 3APS after administration of molar equivalent the selected compounds. […] The animals are anesthetized with isoflurane before blood collection (approximately 45 sec). Samples are collected at 5, 30, 60, 120, 180, 240 and 360 min post intravenous administration and at 15, 30, 60, 120, 180, 240 and 360 min post oral administration. One animal is used to obtain a baseline sample (pre-dose sample). Blood samples are collected into Sarstedt™ micro tubes (EDTA KE/1.3 ml), kept on ice until centrifugation at 4° C. at a minimum speed of 3000 rpm (1620 G) for 10 min. Plasma samples are transferred into Eppendorf™ tubes, immediately placed on dry ice and stored at −80° C. Plasma samples are stored frozen at […] pending analysis.
# Compounds in mouse plasma are extracted using protein precipitation. Quantitation of 3APS in mouse plasma matrix is achieved using LC-MS detection. Sample concentration is calculated using a calibration curve.
# [9] = tested on: organotypic hippocampal slice culture; test: In vitro metabolism of 3APS in organotypic hippocampal slice culture; format: in vitro ADME; settings: 3-day incubation in the culture media
# Procedure: as §1
# [10] = Metabolic profiling of 14C-3APS in dogs; format: in vivo, male Beagle dogs; settings: Dog plasma
# Procedure: as §2
# [11] = Rat plasma, analyte after single oral 100 mg/kg 14C-3APS
# [12] = male, Sprague-Dawley, rat, plasma, po, 100 mg/kg, Rat plasma, analyte after single oral 100 mg/kg 14C-3APS
# [13] = analyte after single oral 100 mg/kg 14C-3APS
# [14] = male, CD-1, mouse, plasma, po, 100 mg/kg, analyte after single oral 100 mg/kg 14C-3APS
# [15] = male, Beagle, dog, plasma, po, 100 mg/kg, analyte after single oral 100 mg/kg 14C-3APS
structure (smiles),measurement,setting,value
"NCCCS(=O)(=O)O [Compound 3APS, 3-amino-1-propanesulfonic acid]",formation of 2-carboxyethanesulfonic acid,[1],detected
same,AUC0-τ,[2]; [11],26.7 µmol·min/mL
same,AUC∞,[2]; [11],27.6 µmol·min/mL
same,T1/2,"[2]; Rat plasma, analyte after single oral 100 mg/kg 14C-3APS, 100 mg/kg",6.43 h
same,"% of Total Radioactivity, Urine","[2]; Rat, amount excreted, single oral 100 mg/kg 14C-3APS",59%
same,Tmax,[2]; [12],~0.5 h
same,half-life,[2]; [12],~6 h
same,Cmax,"[2]; male, Sprague-Dawley, Rat plasma, analyte (3APS or metabolite) after single oral 100 mg/kg 14C-3APS",218 µM
same,in vitro metabolism,[3],no in vitro metabolism
same,AUC0-∞,"[4]; IV, individual animals 1001-1004",1420 µM·h and 1591 µM·h and 1147 µM·h
same,% of total radioactivity (AUC0-∞ analyte/AUC total radioactivity),"[4]; IV, Mean",89%
same,AUC0-∞,"[4]; PO, individual animals 3001-3004",539 µM·h and 407 µM·h and 471 µM·h
same,% of total radioactivity (AUC0-∞ analyte/AUC total radioactivity),"[4]; PO, Mean",about 68%
same,AUC(0-inf),"[4]; iv, Mean",1420 µM·h
same,AUC(0-inf),"[4]; iv, individual animals 1001-1004",1530 µM·h
same,AUC(0-inf),"[4]; po, Mean",507 µM·h
same,AUC(0-inf),"[4]; po, individual animals 3001-3004",610 µM·h
same,% of total radioactivity in plasma based on AUC0-τ,"[5]; healthy subjects, oral 14C-3APS",approximately 48%
same,% of total amount of radioactivity excreted in urine,[5]; human urine,approximately 15%
same,Brain AUC,[6]; 3-APS analysed,BLLQ
same,Brain Cmax,[6]; 3-APS analysed,BLLQ
same,Brain concentration of 3-APS,[6],could not be quantified
same,AUC0-τ,[7]; [13],15.5 µmol·min/mL
same,AUC∞,[7]; [13],15.7 µmol·min/mL
same,Tmax,[7]; [14],~0.5 h
same,half-life,[7]; [14],~2 h
same,Cmax,"[7]; male, CD-1, analyte (3APS or metabolite) after single oral 100 mg/kg 14C-3APS",97.7 µM
same,Tmax,[8],0.25 h
same,3APS converted to 2-carboxyethanesulfonic acid,[9],More than 60%
same,AUC0-τ,[10]; [13],24.5 µmol·min/mL
same,AUC∞,[10]; [13],25.3 µmol·min/mL
same,T1/2,"[10]; analyte after single oral 100 mg/kg 14C-3APS, 100 mg/kg",5.04 h
same,Tmax,[10]; [15],~0.5 h
same,half-life,[10]; [15],~5 h
same,Cmax,"[10]; male, Beagle, analyte (3APS or metabolite) after single oral 100 mg/kg 14C-3APS",250 µM

# — patent publication US11020360B2, “Methods, compounds, compositions and vehicles for delivering 3-amino-1-propanesulfonic acid” (Bellus Health, Inc., priority 2006, dated 2021)
